Experimental findings from US4798811A, “Combination preparation” (BASF Aktiengesellschaft, priority 1986, dated 1989) are described below.

The test system of assay [1] is thrombocyte aggregation. Briefly: Ex vivo inhibition of thrombocyte aggregation after oral administration to five test persons. The assay is classed as in vivo. The note with it: four hours after administration. The method, then:
(§1) The following methods were used:
(§2) Venous blood was taken from four test persons and rendered unclottable by adding citrate, and thrombocyte-rich plasma was then obtained from this blood by centrifuging under 300 g for 10 minutes at 4° C. The addition of adrenalin (final concentration 5×10^-8 mole/liter) and collagen (final concentration 2×10^-3 g/liter) to the thrombocyte-rich plasma caused aggregation, which was measured as the change in extinction using a Born aggregometer MK 3. The maximum change in extinction per second was used as a measure of aggregation. The percentage inhibition of aggregation was determined by comparing the values before and after administration of the substance.
2. Ex vivo investigations
The candidate compounds were filled into stomach-soluble gelatine capsules and administered orally to five test persons. Venous blood was taken before administration of the substances and four hours after administration. This blood was prepared as under 1 and made to aggregate. The percentage inhibition of aggregation was determined by comparing the values before and after administration of the substance.

For assay [2], the system named is thrombocyte aggregation. The experiment in a line: In vitro inhibition of thrombocyte aggregation induced by adrenalin and collagen in thrombocyte-rich plasma. The assay is classed as cell-based, test persons. The method, then: as §1
1. In vitro investigations
as §2

Usually inhibition stands for how much of the control response was suppressed. The low end stands for little suppression, the high end for strong suppression. `CC(=O)Oc1ccccc1C(=O)O` [ASA, acetylsalicylic acid]: the “Aggregation inhibition (%)” value in the assay on thrombocyte aggregation [1] (oral Dosage 60 mg) was 0%. Moreover, in the assay with thrombocyte aggregation [2] (Conc. 1 mg/l, adrenalin 5×10^-8 mole/liter and collagen 2×10^-3 g/liter), the inhibition at 1 µg/mL was 0%. In addition, the “aggregation inhibition (in words)” value in the assay on thrombocyte aggregation [2] (dose of 1.0 mg/l) is recorded as “ineffective”.

For the compound `COc1ccc(CCN(C)CCCC(C#N)(c2ccc(OC)c(OC)c2)C(C)C)cc1OC` (stereo not drawn) [Verapamil, 1,7-bis-(3,4-dimethoxyphenyl)-3-methylaza-7-cyano-8-methylnonane], in the assay with thrombocyte aggregation [1] (oral Dosage 240 mg), the “Aggregation inhibition (%)” value is recorded as 33%. In addition, testing at 2 µg/mL with thrombocyte aggregation [2] (Conc. 2 mg/l, adrenalin 5×10^-8 mole/liter and collagen 2×10^-3 g/liter) gave an inhibition of 8.7%. In the assay with thrombocyte aggregation [2] (Conc. 10 mg/l, adrenalin 5×10^-8 mole/liter and collagen 2×10^-3 g/liter), this compound gave an inhibition at 10 µg/mL of 31%.
